Data: ChEMBL document CHEMBL1130673, “Hydroindenic-guanylhydrazones. Synthesis and evaluation as inotropic agents” (1998)

Legend:
Cavia porcellus [1] = species: Cavia porcellus; experiment: Compound was measured for inotropic activity against isolated guinea pig atria at concentration 3 x 10e-4; Negative inotropic activity; type: functional
Cavia porcellus [2] = species: Cavia porcellus; experiment: Compound was measured for inotropic activity against isolated guinea pig atria at concentration 3 x 10e-4; type: functional

Structure (SMILES) | Activity (Cavia porcellus [1]) | Reduction (Cavia porcellus [2])
C[C@]12CCC(OC(c3ccccc3)(c3ccccc3)c3ccccc3)C[C@@]1(O)CC[C@@H]2CO (stereo not given in full) | Negative inotropic activity | 
C[C@]12CCC3(C[C@@]1(O)CCC2/C=N/N=C(N)N)OCCO3 (stereo not given in full) | Negative inotropic activity | 
COC(=O)/C=C/[C@H]1CC[C@]2(O)CC3(CC[C@]12C)SCCCS3 |  | 85%
C[C@]12CC/C(=N\N=C(N)N)C[C@@]1(O)CCC2/C=N/N=C(N)N (stereo not given in full) | Negative inotropic activity | 
CC(=O)OC[C@H]1CC[C@]2(O)CC3(CC[C@]12C)SCCCS3 |  | 56%
